Experimental data from patent US9156877B2, “17-hydroxy-17-pentafluorethyl-estra-4,9(10)-dien-11-benzylidene derivatives, methods for the production thereof and use thereof for treating diseases” (Bayer Intellectual Property GmbH, priority 2009, dated 2015).
≈ marks a conversion by molar mass, not a printed value.

Experiments:
[1] = biological target: T1, human progesterone receptor A (Homo sapiens, UniProt P06401); test: Progesterone receptor-antagonistic action in stably transfected SK-N-MC cells with MMTV-LUC reporter (PR-A); type: cell-based; details: antagonistic potency against 0.1 nmol/l promegestone, 24 hours, luciferase
T1 construct: expressed in transfected cells; host or cells: SK-N-MC human neuroblastoma cells, stably transfected with pRChPR-A-neo and pMMTV-LUC
T1 sequence (P06401 1-769 isoform P06401-2): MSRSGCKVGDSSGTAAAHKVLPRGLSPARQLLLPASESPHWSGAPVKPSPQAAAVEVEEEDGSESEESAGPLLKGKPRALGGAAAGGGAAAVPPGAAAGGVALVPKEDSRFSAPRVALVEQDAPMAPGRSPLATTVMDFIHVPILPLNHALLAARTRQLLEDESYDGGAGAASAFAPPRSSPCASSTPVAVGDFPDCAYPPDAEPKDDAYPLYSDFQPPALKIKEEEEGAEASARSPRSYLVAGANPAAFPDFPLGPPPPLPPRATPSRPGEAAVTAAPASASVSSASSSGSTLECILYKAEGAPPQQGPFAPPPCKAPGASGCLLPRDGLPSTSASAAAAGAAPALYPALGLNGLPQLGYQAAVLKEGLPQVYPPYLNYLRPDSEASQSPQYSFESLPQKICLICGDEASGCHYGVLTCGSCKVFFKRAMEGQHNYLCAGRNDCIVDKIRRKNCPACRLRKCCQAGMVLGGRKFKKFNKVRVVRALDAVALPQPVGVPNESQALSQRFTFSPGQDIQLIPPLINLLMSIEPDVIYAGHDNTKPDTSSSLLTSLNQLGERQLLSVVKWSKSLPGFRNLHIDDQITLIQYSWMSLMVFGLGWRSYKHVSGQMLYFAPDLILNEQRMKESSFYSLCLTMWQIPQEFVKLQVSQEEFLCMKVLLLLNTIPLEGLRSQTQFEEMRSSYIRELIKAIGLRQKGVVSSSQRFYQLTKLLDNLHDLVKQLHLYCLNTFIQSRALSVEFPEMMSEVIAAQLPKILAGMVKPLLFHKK
How it was run: (§1)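 SK-N-MC neuroblastoma cells stably expressing human PR-A or PR-B plus MMTV-LUC reporter, treated 24 h with test compound (0.01 nmol/l–[…]). Antagonist mode used co-treatment with 0.1 nmol/l promegestone; luciferase in lysates read as RLU, expressed as % efficacy and IC50/EC50.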

[2] = biological target: T2, human progesterone receptor B (Homo sapiens, UniProt P06401); test: Progesterone receptor-antagonistic action in stably transfected SK-N-MC cells with MMTV-LUC reporter (PR-B); type: cell-based; details: antagonistic potency against 0.1 nmol/l promegestone, 24 hours, luciferase
T2 construct: expressed in transfected cells; host or cells: SK-N-MC human neuroblastoma cells, stably transfected with pRChPR-B-neo and pMMTV-LUC
T2 sequence (P06401 1-933): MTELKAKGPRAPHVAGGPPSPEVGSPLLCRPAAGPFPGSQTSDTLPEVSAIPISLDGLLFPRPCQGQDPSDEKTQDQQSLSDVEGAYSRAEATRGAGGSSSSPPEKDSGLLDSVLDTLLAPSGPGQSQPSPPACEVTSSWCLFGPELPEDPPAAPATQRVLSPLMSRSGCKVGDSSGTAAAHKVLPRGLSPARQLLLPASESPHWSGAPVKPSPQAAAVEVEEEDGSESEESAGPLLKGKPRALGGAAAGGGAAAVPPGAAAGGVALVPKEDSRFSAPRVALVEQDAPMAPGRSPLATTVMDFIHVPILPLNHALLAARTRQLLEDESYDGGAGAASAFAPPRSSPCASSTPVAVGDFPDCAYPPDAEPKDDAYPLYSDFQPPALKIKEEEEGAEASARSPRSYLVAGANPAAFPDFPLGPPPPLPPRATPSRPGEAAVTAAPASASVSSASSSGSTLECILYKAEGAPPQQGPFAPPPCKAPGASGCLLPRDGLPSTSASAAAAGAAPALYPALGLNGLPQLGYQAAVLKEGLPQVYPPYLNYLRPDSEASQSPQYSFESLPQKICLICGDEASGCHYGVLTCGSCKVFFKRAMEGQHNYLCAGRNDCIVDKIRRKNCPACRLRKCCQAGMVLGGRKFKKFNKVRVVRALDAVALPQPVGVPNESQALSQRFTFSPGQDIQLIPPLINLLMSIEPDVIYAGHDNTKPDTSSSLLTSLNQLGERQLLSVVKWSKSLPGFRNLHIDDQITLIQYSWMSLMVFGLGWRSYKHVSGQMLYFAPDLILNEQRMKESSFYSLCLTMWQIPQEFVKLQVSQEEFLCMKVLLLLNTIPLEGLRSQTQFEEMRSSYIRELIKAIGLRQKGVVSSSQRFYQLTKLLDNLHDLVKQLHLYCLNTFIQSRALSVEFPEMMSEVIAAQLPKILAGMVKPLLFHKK
How it was run: as §1

[3] = Metabolic stability in human liver microsomes; type: in vitro ADME; details: for Predicted clearance [l/h/kg] Human: 1 μM, well-stirred model
Description: (§2) Determination of Metabolic Stability in Human and Rat Liver Microsomes
Isolated human liver microsomes (HLM) were used to assess the metabolic stability of compounds of general formula I.
(§3) The incubations were conducted with 2.4 ml of HLM solution (protein content 0.5 mg/ml), 30 μl of the test compound (final concentration 1 μM) and 0.6 ml of the cofactor mixture (═NADPH-generating system composed of 3 IU glucose-6-phosphate dehydrogenase, 14.6 mg glucose-6-phosphate, 1.2 mg NADP) at 37° C. in 100 mM phosphate buffer at pH 7.4. Samples were taken at 6 time points (2-60 min) and precipitated with an equal volume of methanol, and the recovery of the test substances used in the supernatant was determined by LC-MS/MS analysis. The half-life of substance degradation determined therefrom was used to calculate what is called the intrinsic clearance of the substance in the liver microsome preparation. […] In addition, under the assumptions that (i) absorption of the test substance is 100%, and (ii) the first pass is completely reflected by liver microsome metabolism, a maximum oral bioavailability (Fmax) was calculated.

[4] = Metabolic stability in rat liver microsomes; type: in vitro ADME; details: for Predicted clearance [l/h/kg] Rat: well-stirred model
Description: as §2, §3

[5] = Solubility in aqueous medium at pH 7.4; type: physicochemical; details: for solubility: aqueous medium, pH 7.4, aqueous buffer
Text: In addition, some compounds have an unusually good solubility, for this active ingredient class, in aqueous medium under physiological conditions (Table 2).

IC50 [1]	IC50 [2]	Predicted Fmax [%] (maximum oral bioavailability) Human [3]	Predicted clearance [l/h/kg] Human [3]	Predicted Fmax [%] (maximum oral bioavailability) Rat [4]	Predicted clearance [l/h/kg] Rat [4]	solubility [5]	solubility (in words) ([5]; aqueous medium under physiological conditions)	Compound
0.16 nM	0.12 nM	84%	0.21 L/h/kg	83%	0.7 L/h/kg	9 µg/mL (≈ 15.8 µM)		C[C@]12C[C@H](c3ccc(/C=C/c4ccccn4)cc3)C3=C4CCC(=O)C=C4CC[C@H]3[C@@H]1CC[C@@]2(O)C(F)(F)C(F)(F)F [Example 6, (8S,11R,13S,14S,17S)-17-hydroxy-13-methyl-17-pentafluoroethyl-11-[4-((E)-2-pyridin-2-ylvinyl)phenyl]-1,2,6,7,8,11,12,13,14,15,16,17-dodecahydrocyclopenta[a]phenanthren-3-one]
0.012 nM	0.077 nM	87%	0.18 L/h/kg	92%	0.3 L/h/kg	7 µg/mL (≈ 12.3 µM)		C[C@]12C[C@H](c3ccc(/C=C/c4ccncc4)cc3)C3=C4CCC(=O)C=C4CC[C@H]3[C@@H]1CC[C@@]2(O)C(F)(F)C(F)(F)F [Example 8, (8S,11R,13S,14S,17S)-17-hydroxy-13-methyl-17-pentafluoroethyl-11-[4-((E)-2-pyridin-4-ylvinyl)phenyl]-1,2,6,7,8,11,12,13,14,15,16,17-dodecahydrocyclopenta[a]phenanthren-3-one]
0.055 nM	0.09 nM	68%	0.43 L/h/kg	76%	1.0 L/h/kg	8 µg/mL (≈ 13.6 µM)		Cc1nc(/C=C/c2ccc([C@H]3C[C@@]4(C)[C@@H](CC[C@@]4(O)C(F)(F)C(F)(F)F)[C@@H]4CCC5=CC(=O)CCC5=C43)cc2)cs1 [Example 9, (8S,11R,13S,14S,17S)-17-hydroxy-13-methyl-11-{4-[(E)-2-(2-methylthiazol-4-yl)vinyl]phenyl}-17-pentafluoroethyl-1,2,6,7,8,11,12,13,14,15,16,17-dodecahydrocyclopenta[a]phenanthren-3-one]
0.2 nM	0.86 nM	73%	0.36 L/h/kg	76%	1.0 L/h/kg	8 µg/mL (≈ 12.5 µM)		Cc1nc2cc(/C=C/c3ccc([C@H]4C[C@@]5(C)[C@@H](CC[C@@]5(O)C(F)(F)C(F)(F)F)[C@@H]5CCC6=CC(=O)CCC6=C54)cc3)ccc2s1 [Example 10, (8S,11R,13S,14S,17S)-17-hydroxy-13-methyl-11-{4-[(E)-2-(2-methylbenzothiazol-5-yl)vinyl]phenyl}-17-pentafluoroethyl-1,2,6,7,8,11,12,13,14,15,16,17-dodecahydrocyclopenta[a]phenanthren-3-one]
0.1 nM	0.3 nM	52%	0.63 L/h/kg	97%	0.1 L/h/kg	> 179 µg/mL	improved	C[C@]12C[C@H](c3ccc(/C=C/C(=O)O)cc3)C3=C4CCC(=O)C=C4CC[C@H]3[C@@H]1CC[C@@]2(O)C(F)(F)C(F)(F)F [Example 13, (E)-3-[4-((8S,11R,13S,14S,17S)-17-hydroxy-13-methyl-3-oxo-17-pentafluoroethyl-2,3,6,7,8,11,12,13,14,15,16,17-dodecahydro-1H-cyclopenta[a]phenanthren-11-yl)phenyl]acrylic acid]
0.011 nM	0.011 nM	31%	0.9 L/h/kg	75%	1.1 L/h/kg	9 µg/mL (≈ 17.4 µM)		C[C@]12C[C@H](c3ccc(/C=C/C#N)cc3)C3=C4CCC(=O)C=C4CC[C@H]3[C@@H]1CC[C@@]2(O)C(F)(F)C(F)(F)F [Example 14, (E)-3-[4-((8S,11R,13S,14S,17S)-17-hydroxy-13-methyl-3-oxo-17-pentafluoroethyl-2,3,6,7,8,11,12,13,14,15,16,17-dodecahydro-1H-cyclopenta[a]phenanthren-11-yl)phenyl]acrylonitrile]
0.1 nM	0.3 nM	23%	1.02 L/h/kg	52%	2.0 L/h/kg	10 µg/mL (≈ 18.7 µM)		CC(=O)/C=C/c1ccc([C@H]2C[C@@]3(C)[C@@H](CC[C@@]3(O)C(F)(F)C(F)(F)F)[C@@H]3CCC4=CC(=O)CCC4=C32)cc1 [Example 16, (8S,11R,13S,14S,17S)-17-hydroxy-13-methyl-11-[4-((E)-3-oxobut-1-enyl)phenyl]-17-pentafluoroethyl-1,2,6,7,8,11,12,13,14,15,16,17-dodecahydrocyclopenta[a]phenanthren-3-one]
0.9 nM	1 nM	48%	0.7 L/h/kg	88%	0.5 L/h/kg	7 µg/mL (≈ 12.3 µM)		C[C@]12C[C@H](c3cccc(/C=C/c4ccccn4)c3)C3=C4CCC(=O)C=C4CC[C@H]3[C@@H]1CC[C@@]2(O)C(F)(F)C(F)(F)F [Example 21, (8S,11R,13S,14S,17S)-17-hydroxy-13-methyl-17-pentafluoroethyl-11-[3-((E)-2-pyridin-2-ylvinyl)phenyl]-1,2,6,7,8,11,12,13,14,15,16,17-dodecahydrocyclopenta[a]phenanthren-3-one]
